Results on 5 molecules are retold here after US12318399B2 (priority 2022, dated 2025).

SMILES strings stand for the structures. Read-outs that look alike come from different tables or passages of the source.

In data set [1] the test system is patient derived endometrial cancer cells. Kind of data set: Patient-derived xenograft (PDX) mouse model, tumor volume. The settings on record: monotherapy 30 mg/kg intraperitoneal, by day 14 and at day 21. Format: in vivo. How it is done: Human patient cells from endometrial cancer were injected subcutaneously into female NOD/SCID gamma mice after resuspending in 100 μL solution. […] Tumor size measured before treatment, followed by twice a week measurement. All treatment group mice were kept alive for up to 10 weeks after drug injection or until the tumor volume grows bigger than 2,500 mm^3.
Tumor size was measured along with body weight at the time of tissue collection. All tumor tissues were removed carefully from the euthanized mouse body. Tumor tissue samples were kept for histology, proteomics, genomics, and other downstream processing. All downstream processing was completed following NCI Patient-Derived Models Repository SOPs. Tumor volume graph will be plotted using GraphPad Prism 9.
The mouse studies utilized intraperitoneal dosing of various formulations of cannabis extracts comprising a known quantity of CBD.
Background: In xenograft studies the graft and the host belong to different species.

A further data set has as its system ovarian cancer organoids. Kind of data set: Patient-derived ovarian cancer organoid cell viability. The settings on record: for cell viability: chemo sensitive and chemo resistant organoids, FIGS. 11A-11D; for Ovarian Cancer Average: vehicle = 100. Format: cell-based, human. As to the method:
(§1) Development of patient derived organoids: The patient derived organoids were created as follows: the patient's tissue sample was collected after surgery and bathed in Hank's Balanced Salt Solution (HBSS) (Hyclone, SH30031.02) with 1% Pencillin/Streptomycin (P/S) (Life Technologies, 15070-063) on ice. Then the sample was washed three times with Dulbecco's phosphate-buffered saline (DPBS) and 1% P/S on a shaker (70 rpm) for 15 minutes each. The tissue was then transferred into a presterilized cell-culture hood to mince it finely with a sterile blade. All minced parts were then digested in an enzyme named Accumax (Innovative Cell Technologies Inc., AM105-500) for 2.5 hours at room temperature. After 2.5-hour incubation, the whole digested tissue mince was transferred in another enzyme, TrypLE express, (Gibco, 12604-021) for another 45 minutes in a 37° C. water bath. During this time the solution was continuously agitated in every 5 minutes interval. After 45 minutes of incubation, the solutions were passed through 70 μm filter on a 50 mL falcon tube. The filter was removed, and the flowthrough with the cells was collected in 5% FBS AD+++ medium (comprising 1% TS, 2% B27, 1% N2, 25% WRN, hegf 50 ng/ml, hfgf 10-100 ng/ml, Nicotinamide 1 mM, N-acetyl cysteine 1.25 mM, Primocin 0.2%, Estrogen 2 nm, A8301 0.5 μM, and Y27632). This cell suspension was centrifuged at 1000 rpm for 5 minutes at room temperature to get the cell pellet for counting. Upon checking under hemocytometer cell number was calculated and processed for organoid culture. After checking under a microscope if we found RBC contamination in the final cell suspension, then we used Red Blood Cell Lysis Buffer (Roche Diagnostics, 11814389001) to get rid of the excess RBC. Human patient cells from endometrial cancer were grown and maintained in a humidified chamber at 37° C. with 5% CO2.
For the Ascites samples, we centrifuged the ascites fluid at 1000 rpm for 10 minutes at room temperature to get the cell suspension. The cell suspension was then treated with Red Blood Cell Lysis Buffer (Roche Diagnostics, 11814389001) to remove the RBC from the final cell suspension. Once samples were created, they were ready for testing, which included treating the organoids with cannabis extract. Additional cells were cultured in the same manner as above.
(§2) To culture patient-derived organoids, 2-3×10^3 cells were plated in a prewarmed (37° C.) 96-well plate in […] of Matrigel (5% FBS AD+++ medium) per well. Individual patient cell organoid was cultured separately in different plates. Individual patient cells were handled separately to reduce the chance of cross-contamination. After mixing cells with Matrigel, […] droplets were placed in wells and put in a 37° C. incubator with 5% CO2 for 30 minutes. Upon solidification of the Matrigel droplet with cells inside, the plate was placed inside a sterile hood and immersed the Matrigel droplet in 200 μL of organoid growth media. Cells were allowed to grow into mature organoids for 14 days. […] All treatments were done in triplicate, including vehicle-only controls (Dimethyl sulfoxide in culture medium at the highest concentration used for drug treatments).
(§3) Note: IC50 is the 50% inhibitory concentration which is conventionally used to determine drug potency with cell-based cytotoxicity tests. Similarly, all of the antioxidants were tested under the same protocol.
To assess the cell viability in organoids after treatments, CellTiter-Glo® Luminescent Assay (Promega #G7572) was used. In brief, on day 14 of organoid culture, the matrigel droplet in each well with organoid inside was immersed in 100 μL of fresh growth media and 100 μL of CellTiter-Glo® reagent following the manufacturer's guideline. Blank wells containing only media and CellTiter-Glo® reagent (no cells) were also included in each plate. […]

The subject of data set [2] is endometrial cancer organoids. The data set is described as follows: Patient-derived endometrial cancer organoid cell viability (CellTiter-Glo). The settings on record: for Endometrial Cancer Average: vehicle = 100. It counts as cell-based, human. How it is done:
as §1, §2, §3
(§4) To assess the cell viability in organoids after treatments, CellTiter-Glo® Luminescent Assay (Promega #G7572) was used. In brief, on day 14 of organoid culture, the matrigel droplet in each well with organoid inside was immersed in 100 μL of fresh growth media and 100 μL of CellTiter-Glo® reagent following the manufacturer's guideline. Blank wells containing only media and CellTiter-Glo® reagent (no cells) were also included in each plate. Then the plates were put on a shaker at 110 RPM at room temperature for […] minutes to induce cell lysis, followed by 25 minutes at room temperature to stabilize the luminescent signal. Each step after adding the CellTiter-Glo® reagent was performed in the dark. Luminescence was measured on a FLUOstar OPTIMA plate reader (BMG Lab technologies, Offenburg, Germany). Analysis was performed by normalizing treatment values to the vehicle control and plotting them as a percentage of the vehicle control.
(In general: Cellular ATP, detected with luciferase, serves as a proxy for viable cell number.)

The conditions of data set [3]: cited from earlier work.
Data set [4] has as its system chemoresistant EC, which had metastasized. The data set is described as follows: Testing within human patients. It counts as in vivo.
For a further data set, the system named is endometriosis organoids. Kind of data set: Endometriosis organoid cell viability. It counts as cell-based, human. Also noted: key: % of vehicle control. The settings on record: vehicle = 100. How it is done:
as §2, §3
as §4, with “control. Drug IC50 values were determined by inhibitor vs normalized response-variable slope using least squares regression in Graphpad Prism 9.” for “control.”

Turning to `C=C(C)[C@@H]1CCC(C)=C[C@H]1c1c(O)cc(CCCCC)cc1O` [CBD isolate, cannabidiol], the tumor volumes result in data set [1] is listed as “decreased”. The cell viability entry in the data set with ovarian cancer organoids is “dramatically reduce cell viability”. Also, in the data set on ovarian cancer organoids (pH 8), the “efficacy at killing the organoids compared with native pH” value is on record as “virtually no change”. Moreover, the “response of patient derived organoids” value in data set [2] (7 or 10 μg/mL, FIGS. 4B and 4C) is listed as “virtually all patients respond”. Moreover, the eradication in data set [2] (IC50 of cannabis extract combined with the higher doses of carboplatin) is given as ~100%.
For `C=C(C)[C@@H]1CCC(C)=C[C@H]1c1c(O)cc(CCCCC)cc1O` [CBD, cannabidiol], the “increase of Cmax” value in data set [3] (coadministration with high fat food) is “up to 5 fold”. Further, the Tmax result in data set [3] (delivery via the nasal mucosa) is on record as “approximately 10 minutes”. The “maximum plasma concentration (time)” value in data set [3] (oral-mucosal or sublingual delivery) is 1.6 h; in data set [3] (orally delivered), 2.5 to 5 h. The “efficacy in human patients” value in data set [4] was “effective in reducing chemoresistant EC”.
Regarding `C=C(C)[C@@H]1CCC(C)=C[C@H]1c1c(O)cc(CCCCC)c(C(=O)O)c1O` [CBDA, cannabidiolic acid], the tumor volumes result in data set [1] is “decreased”. Moreover, the cell viability entry with ovarian cancer organoids is reported as “dramatically reduce cell viability”. In data set [2] (dosing up to 50 μg/mL), the “reduction in organoid formation in all patients” value is ~100%.
On to `CCCCCc1cc(O)c2c(c1)OC(C)(C)[C@@H]1CCC(C)=C[C@@H]21` [THC, Δ-9-tetrahydrocannabinol], for which the “onset to reach peak concentration” value in data set [3] (oral formulations) is reported as ~120 min.
For `O=c1c(O)c(-c2cc(O)c(O)c(O)c2)oc2cc(O)cc(O)c12` [myricetin], the “Ovarian Cancer Average” value with ovarian cancer organoids (25 μM) is on record as 88.60; with ovarian cancer organoids (50 μM), 84.68; in the data set with ovarian cancer organoids (75 μM) it was 78.36; in the data set on ovarian cancer organoids (100 μM) it was 38.95; in the data set on ovarian cancer organoids (125 μM), 13.49; with ovarian cancer organoids (150 μM), 2.97. Further, the “Ovarian Cancer Average” value in the data set with ovarian cancer organoids (175 μM) and in the data set on ovarian cancer organoids (200 μM) was 0.00 throughout. Moreover, the “Endometriosis Average” value was found to be 92.10 in the data set with endometriosis organoids (25 μM); 91.37 in the data set on endometriosis organoids (50 μM); 73.66 in the data set with endometriosis organoids (75 μM); 18.33 in the data set on endometriosis organoids (100 μM); 2.85 in the data set on endometriosis organoids (125 μM); 0.00 in the data set on endometriosis organoids (150 μM). For the same molecule, the “Endometriosis Average” value with endometriosis organoids (175 μM) and in the data set on endometriosis organoids (200 μM) was 0.00 in each case. In addition, in data set [2] (10 μM, with IC50 of BSHE), the “reduction from its monotherapy” value is ~86%. Further, the “Endometrial Cancer Average” value came to 85.01 in data set [2] (Table 4, 10 μM); 54.50 in data set [2] (Table 4, 25 μM); 15.11 in data set [2] (Table 4, 50 μM); 4.98 in data set [2] (Table 4, 75 μM); 0.00 in data set [2] (Table 4, 100 μM); 0.00 in data set [2] (Table 4, 125 μM). The “Endometrial Cancer Average” value in data set [2] (Table 4, 150 μM) is 0.00; in data set [2] (Table 4, 175 μM), 0.00; in data set [2] (Table 4, 200 μM), 0.00. In addition, the “cell viability as a monotherapy” value in data set [2] (monotherapy, FIG. 16) is reported as “significantly reduced cell viability”.
